Where a name gives a salt, the structure may show the parent alone. Read-outs that look alike come from different tables or passages of the source.
What was measured:
[1] = target: T1, high affinity CNS nicotinic receptors (Rattus norvegicus, UniProt P09483+P12390); experiment: biochemical; type: binding; settings: calculated from IC50 values using the method of Cheng et al.
T1 construct: from tissue

[2] = tested on: CNS nicotinic receptors (dopamine release); experiment: Determination of dopamine release; type: cell-based; settings: for Emax: read-out: Dopamine Release Emax
[3] = target: T2, muscle receptors (nicotinic receptors of human muscle) (Homo sapiens, UniProt P02708+P07510+Q07001); experiment: Determination of interaction with muscle; type: cell-based; settings: maximal activation (Emax) as percentage of maximal activation induced by (S)-(-)-nicotine
T2 construct: endogenous in cells; host or cells: cell preparations derived from muscle
T2 sequence (P02708 21-457): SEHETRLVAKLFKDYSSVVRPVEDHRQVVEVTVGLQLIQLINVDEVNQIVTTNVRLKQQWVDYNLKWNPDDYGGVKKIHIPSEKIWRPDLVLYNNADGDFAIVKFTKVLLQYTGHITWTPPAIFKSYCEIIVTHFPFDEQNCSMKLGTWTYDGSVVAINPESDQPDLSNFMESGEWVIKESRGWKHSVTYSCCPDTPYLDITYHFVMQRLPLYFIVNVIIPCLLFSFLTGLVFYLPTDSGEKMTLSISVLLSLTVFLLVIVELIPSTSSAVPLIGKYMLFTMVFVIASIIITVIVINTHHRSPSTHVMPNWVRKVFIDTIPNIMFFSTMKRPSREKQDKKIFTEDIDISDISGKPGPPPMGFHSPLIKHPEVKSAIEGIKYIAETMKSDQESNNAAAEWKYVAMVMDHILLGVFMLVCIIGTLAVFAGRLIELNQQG
T2 sequence (P11230 24-501 partner): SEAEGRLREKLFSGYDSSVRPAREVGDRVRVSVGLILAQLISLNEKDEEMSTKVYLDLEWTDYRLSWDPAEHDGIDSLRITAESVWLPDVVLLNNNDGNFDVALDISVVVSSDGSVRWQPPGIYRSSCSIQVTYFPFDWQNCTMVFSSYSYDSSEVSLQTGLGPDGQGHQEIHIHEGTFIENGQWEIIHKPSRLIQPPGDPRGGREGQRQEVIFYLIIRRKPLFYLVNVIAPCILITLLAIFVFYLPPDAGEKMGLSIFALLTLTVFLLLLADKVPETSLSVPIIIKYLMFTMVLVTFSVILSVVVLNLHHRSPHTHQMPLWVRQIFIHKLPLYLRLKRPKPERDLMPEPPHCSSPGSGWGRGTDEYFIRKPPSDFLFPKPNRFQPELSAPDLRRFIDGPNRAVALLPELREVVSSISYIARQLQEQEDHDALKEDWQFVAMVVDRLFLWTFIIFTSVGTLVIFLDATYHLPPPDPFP
T2 sequence (Q07001 22-517): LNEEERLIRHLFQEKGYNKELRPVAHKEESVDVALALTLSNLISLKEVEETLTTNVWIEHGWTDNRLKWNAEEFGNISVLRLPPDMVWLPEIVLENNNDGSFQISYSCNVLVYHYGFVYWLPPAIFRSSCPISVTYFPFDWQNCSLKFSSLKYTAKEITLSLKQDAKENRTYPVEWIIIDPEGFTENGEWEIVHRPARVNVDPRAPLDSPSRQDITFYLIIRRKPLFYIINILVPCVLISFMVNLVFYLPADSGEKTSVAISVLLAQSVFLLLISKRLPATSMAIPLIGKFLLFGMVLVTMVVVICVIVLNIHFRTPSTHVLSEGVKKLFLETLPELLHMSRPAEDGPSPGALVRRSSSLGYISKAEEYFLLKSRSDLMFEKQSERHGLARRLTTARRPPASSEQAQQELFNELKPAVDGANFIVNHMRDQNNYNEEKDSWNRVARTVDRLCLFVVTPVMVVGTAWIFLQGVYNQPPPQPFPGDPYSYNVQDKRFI
T2 sequence (P07510 23-517): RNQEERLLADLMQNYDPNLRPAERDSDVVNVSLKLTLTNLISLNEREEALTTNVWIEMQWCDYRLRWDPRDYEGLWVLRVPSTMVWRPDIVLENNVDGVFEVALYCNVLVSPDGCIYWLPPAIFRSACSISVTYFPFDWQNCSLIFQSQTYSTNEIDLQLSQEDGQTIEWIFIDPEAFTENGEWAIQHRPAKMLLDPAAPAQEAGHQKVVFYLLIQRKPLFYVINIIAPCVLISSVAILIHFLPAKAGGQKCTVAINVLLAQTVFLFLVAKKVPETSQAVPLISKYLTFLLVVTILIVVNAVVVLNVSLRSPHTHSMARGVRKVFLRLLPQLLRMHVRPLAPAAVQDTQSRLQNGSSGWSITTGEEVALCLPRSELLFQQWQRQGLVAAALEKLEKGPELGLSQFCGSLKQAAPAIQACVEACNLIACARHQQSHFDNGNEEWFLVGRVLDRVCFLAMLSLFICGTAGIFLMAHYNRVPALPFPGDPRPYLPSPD
Description: The compounds of the present invention, when employed in effective amounts in accordance with the method of the present invention, lack the ability to elicit activation of nicotinic receptors of human muscle to any significant degree. […] Generally, typical compounds useful in carrying out the present invention activate isotopic rubidium ion flux by less than 20 percent, often by less than 15 percent, and frequently by less than 10 percent, of that elicited by an equal molar amount of (S)-(−)-nicotine.
(§1) The determination of the interaction of the compounds with muscle receptors was carried out in accordance with the techniques described in U.S. Pat. No. 5,597,919 to Dull et al., the subject matter of which is already incorporated herein by reference in its entirety. […] The maximal activation for individual compounds (Emax) was determined as a percentage of the maximal activation induced by (S)-(−)-nicotine.

[4] = target: T3, ganglionic receptors (ganglionic-type nicotinic receptors) (Rattus norvegicus, UniProt P04757+P12392); experiment: Determination of interaction with ganglia; type: cell-based; settings: maximal activation (Emax) as percentage of maximal activation induced by (S)-(-)-nicotine
T3 construct: endogenous in cells; host or cells: cell preparations derived from the adrenal gland
T3 sequence (P04757 26-499): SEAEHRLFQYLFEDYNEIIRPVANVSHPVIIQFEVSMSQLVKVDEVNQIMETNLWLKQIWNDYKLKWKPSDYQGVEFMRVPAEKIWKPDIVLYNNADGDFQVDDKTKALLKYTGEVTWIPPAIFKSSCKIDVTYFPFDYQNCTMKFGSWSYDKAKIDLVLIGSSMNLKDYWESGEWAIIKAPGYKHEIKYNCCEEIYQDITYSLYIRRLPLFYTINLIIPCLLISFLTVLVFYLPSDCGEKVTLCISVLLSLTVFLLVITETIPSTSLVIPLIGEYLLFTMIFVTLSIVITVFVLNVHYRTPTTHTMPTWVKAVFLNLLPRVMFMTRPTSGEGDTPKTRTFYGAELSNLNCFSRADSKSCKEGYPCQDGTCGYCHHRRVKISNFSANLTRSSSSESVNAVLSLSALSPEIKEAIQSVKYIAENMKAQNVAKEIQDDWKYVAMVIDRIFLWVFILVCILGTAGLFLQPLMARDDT
T3 sequence (P12392 21-495): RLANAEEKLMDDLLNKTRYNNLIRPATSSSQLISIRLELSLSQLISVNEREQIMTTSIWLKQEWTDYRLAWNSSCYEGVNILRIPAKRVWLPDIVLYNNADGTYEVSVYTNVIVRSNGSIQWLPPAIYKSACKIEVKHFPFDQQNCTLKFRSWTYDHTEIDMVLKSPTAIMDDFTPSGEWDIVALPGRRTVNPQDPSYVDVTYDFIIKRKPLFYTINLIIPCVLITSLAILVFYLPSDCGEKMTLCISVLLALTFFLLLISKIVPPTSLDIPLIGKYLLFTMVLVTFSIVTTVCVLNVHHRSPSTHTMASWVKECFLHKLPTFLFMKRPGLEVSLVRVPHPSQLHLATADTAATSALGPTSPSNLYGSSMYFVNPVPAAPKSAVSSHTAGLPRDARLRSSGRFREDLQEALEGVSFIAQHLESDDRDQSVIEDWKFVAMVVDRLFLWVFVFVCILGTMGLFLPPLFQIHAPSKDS
Description: By this is meant that a particular dose of compound resulting in prevention and/or treatment of a CNS disorder is essentially ineffective in eliciting activation of certain ganglionic-type nicotinic receptors. […] As such, the compounds of the present invention have poor ability to cause isotopic rubidium ion flux through nicotinic receptors in cell preparations derived from the adrenal gland. Generally, the compounds useful in the present invention activate isotopic rubidium ion flux by less than 25 percent, often by less than 15 percent, frequently by less than 10 percent, and even essentially 0 percent, of that elicited by an equal molar amount of (S)-(−)-nicotine.
as §1, with “ganglionic” for “muscle”

[5] = read-out: Dopamine Release EC50 (nM)

T1 sequence (P09483 31-630): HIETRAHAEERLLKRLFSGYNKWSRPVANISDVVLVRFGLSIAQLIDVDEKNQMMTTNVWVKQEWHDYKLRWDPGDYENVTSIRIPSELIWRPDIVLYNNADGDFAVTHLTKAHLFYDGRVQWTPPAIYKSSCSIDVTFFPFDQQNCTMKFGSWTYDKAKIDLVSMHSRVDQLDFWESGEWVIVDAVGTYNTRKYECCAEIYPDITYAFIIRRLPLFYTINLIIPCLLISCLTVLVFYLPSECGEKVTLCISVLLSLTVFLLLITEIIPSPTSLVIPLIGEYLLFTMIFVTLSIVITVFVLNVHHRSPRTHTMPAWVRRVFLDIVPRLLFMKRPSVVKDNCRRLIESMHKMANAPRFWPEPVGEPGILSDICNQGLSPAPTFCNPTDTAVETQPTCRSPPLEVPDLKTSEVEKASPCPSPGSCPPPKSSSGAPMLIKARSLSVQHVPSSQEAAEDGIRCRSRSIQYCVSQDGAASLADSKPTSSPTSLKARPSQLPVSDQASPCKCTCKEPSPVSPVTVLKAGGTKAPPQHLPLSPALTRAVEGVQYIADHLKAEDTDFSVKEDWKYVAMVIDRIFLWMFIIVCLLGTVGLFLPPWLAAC
T1 sequence (P12390 25-500): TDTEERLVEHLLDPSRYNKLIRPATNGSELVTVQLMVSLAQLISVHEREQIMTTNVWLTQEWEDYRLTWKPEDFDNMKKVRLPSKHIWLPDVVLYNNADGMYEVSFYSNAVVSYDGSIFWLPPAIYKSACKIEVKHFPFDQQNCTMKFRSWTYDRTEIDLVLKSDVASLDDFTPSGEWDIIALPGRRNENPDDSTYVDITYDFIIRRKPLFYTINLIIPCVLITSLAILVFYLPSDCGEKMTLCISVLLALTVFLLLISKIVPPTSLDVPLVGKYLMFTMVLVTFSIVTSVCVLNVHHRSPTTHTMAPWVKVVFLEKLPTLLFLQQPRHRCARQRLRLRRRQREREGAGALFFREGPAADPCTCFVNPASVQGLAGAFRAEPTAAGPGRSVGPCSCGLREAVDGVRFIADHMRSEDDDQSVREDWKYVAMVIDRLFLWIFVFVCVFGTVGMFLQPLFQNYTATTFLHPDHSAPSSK

SMILES	melting point	Ki [1]	EC50 [2, 5]	Muscle Effect (% nicotine) [3]	Ganglion Effect (% nicotine) [4]	Emax [2]	EC50 ([2]; read-out: Dopamine Release EC50)
NCC/C=C/c1cncc(Br)c1 (as salt: fumarate) [Sample No. 2, (E)-4-[3-(5-Bromopyridin)yl]-3-buten-1-amine Hemifumarate]	175 to 176.5 °C	–	–	–	–	–	–
CNCC/C=C/c1cncc(OCc2ccccc2)c1 [Sample No. 1, (E)-N-Methyl-4-[3-(5-benzyloxypyridin)yl]-3-buten-1-amine]	–	5 nM	4000 nM	12 % nicotine	0 % nicotine	–	–
NCC/C=C/c1cncc(Br)c1 [Sample No. 2, (E)-4-[3-(5-Bromopyridin)yl]-3-buten-1-amine Hemifumarate]	–	79 nM	2400 nM	8 % nicotine	11 % nicotine	107%	–
CNCC/C=C/c1cncc(Oc2ccccc2)c1 [Sample No. 3, (E)-N-Methyl-4-[3-(5-phenoxypyridin)yl]-3-buten-1-amine]	–	21 nM	114 nM	5 % nicotine	<15 % nicotine	–	–
CNCC/C=C/c1cncc(OC(C)C)c1 [Sample No. 4, (E)-N-Methyl-4-[3-(5-isopropoxypyridin)yl]-3-buten-1-amine]	–	6 nM	–	8 % nicotine	<15 % nicotine	–	–
CNCC/C=C/c1cncc(COC)c1 [Sample No. 5, (E)-N-Methyl-4-[3-(5-methoxymethylpyridin)yl]-3-buten-1-amine]	–	130 nM	16000 nM	13 % nicotine	0 % nicotine	–	–
NCC/C=C/c1cccnc1.O=C(O)/C=C/C(=O)O.O=C(O)/C=C/C(=O)O [Sample No. 6, (E)-4-(3-pyridinyl)-3-buten-1-amine difumarate]	–	119 nM	5020 nM	15 % nicotine	23 % nicotine	81%	–
CCOc1cncc(/C=C/CCNC)c1 [Sample No. 7, (E)-N-Methyl-4-[3-(5-ethoxypyridin)yl]-3-buten-1-amine Sesquifumarate]	–	5 nM	–	3 % nicotine	<15 % nicotine	70%	276 nM
CNCC/C=C/c1cncc(-c2ccccc2)c1 [Sample No. 8, (E)-N-Methyl-4-[3-(5-phenylpyridin)yl]-3-buten-1-amine]	–	184 nM	> 100000 nM	8 % nicotine	0 % nicotine	–	–
CNCC/C=C/c1cncc(N)c1 [Sample No. 9, (E)-N-methyl-4-[3-(5-aminopyridin)yl]-3-buten-1-amine]	–	658 nM	2000 nM	4 % nicotine	4 % nicotine	85%	–
CN1CCC[C@H]1c1cccnc1 [Sample No. C-1, (S)-(−)-nicotine, reference compound]	–	–	–	100 % nicotine	100 % nicotine	–	–

Source: patent publication US6531606B1, “Pharmaceutical compositions incorporating aryl substituted olefinic amine compounds” (Targacept, Inc., priority 1997, dated 2003)
